In PubChem BioAssay (NCI):
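Each compound was tested at five concentrations against cells in 96-well plates for 48 hours. GI50 marks 50% less growth. The concentration for full growth arrest is given as TGI.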

Key:
Assay in all cases: growth of human tumour cells (NCI), 48 h
[1] = test system: T-47D breast
[2] = test system: NCI-H522 lung
[3] = test system: SN12C renal
[4] = test system: UACC-62 melanoma
[5] = test system: OVCAR-4 ovarian
[6] = test system: HOP-92 NSCLC
[7] = test system: MOLT-4 leukemia
[8] = test system: LOX IMVI melanoma
[9] = test system: HOP-62 NSCLC
[10] = test system: NCI-H226 lung
[11] = test system: HCT-15 colon
[12] = test system: A549 NSCLC
[13] = test system: NCI/ADR-RES ovarian
[14] = test system: PC-3 prostate
[15] = test system: HCC-2998 colon
[16] = test system: COLO 205 colon
[17] = test system: M14 melanoma
[18] = test system: UO-31 renal
[19] = test system: SNB-19 CNS
[20] = test system: SF-268 CNS
[21] = test system: HT29 colon
[22] = test system: SK-MEL-5 melanoma
[23] = test system: U251 CNS
[24] = test system: SK-OV-3 ovarian
[25] = test system: HL-60(TB) leukemia
[26] = test system: HS 578T breast
[27] = test system: SK-MEL-2 melanoma
[28] = test system: CCRF-CEM leukemia
[29] = test system: SW-620 colon
[30] = test system: MDA-MB-231 breast
[31] = test system: SNB-75 CNS
[32] = test system: NCI-H460 lung
[33] = test system: UACC-257 melanoma
[34] = test system: OVCAR-5 ovarian
[35] = test system: HCT-116 colon
[36] = test system: TK-10 renal
[37] = test system: OVCAR-3 ovarian
[38] = test system: CAKI-1 renal
[39] = test system: KM12 colon
[40] = test system: EKVX NSCLC
[41] = test system: SF-539 CNS
[42] = test system: RPMI-8226 leukemia
[43] = test system: BT-549 breast
[44] = test system: DU-145 prostate
[45] = test system: OVCAR-8 ovarian
[46] = test system: MALME-3M melanoma
[47] = test system: RXF 393 renal
[48] = test system: ACHN renal
[49] = test system: MDA-MB-435
[50] = test system: IGROV1 ovarian
[51] = test system: 786-0 renal
[52] = test system: SK-MEL-28 melanoma
[53] = test system: SF-295 CNS
[54] = test system: NCI-H23 lung
[55] = test system: A498 renal

With `C=C1C(=O)O[C@H]2[C@H]1CC/C(CNC(=O)c1cccc3ccccc13)=C\CC[C@@]1(C)O[C@@H]21` the GI50 [1] was 2.55 µM, the TGI [1] was 9.08 µM and the GI50 [2] was 1.36 µM. For the same molecule, the TGI [2] was 2.95 µM, the GI50 [3] was 1.96 µM and the TGI [3] was 5.91 µM. The GI50 [4] was 1.64 µM, the TGI [4] was 3.9 µM and the GI50 [5] was 2.34 µM. It also gave a TGI [5] of 8 µM, a GI50 [6] of 1.83 µM and a TGI [6] of 4.44 µM. For the same molecule, the GI50 [7] was 1.7 µM, the TGI [7] was 5.62 µM and the GI50 [8] was 1.53 µM. For the same molecule, the TGI [8] was 3.19 µM, the GI50 [9] was 14.1 µM and the TGI [9] was 30.7 µM. It also gave a GI50 [10] of 29.1 µM, a TGI [10] of 77.6 µM and a GI50 [11] of 1.31 µM. It also gave a TGI [11] of 3.14 µM, a GI50 [12] of 14.1 µM and a TGI [12] of 35.3 µM. It also gave a GI50 [13] of 4.52 µM, a TGI [13] of 46.9 µM and a GI50 [14] of 1.79 µM. It also gave a TGI [14] of 4 µM, a GI50 [15] of 2.43 µM and a TGI [15] of 5.2 µM. It also gave a GI50 [16] of 1.75 µM, a TGI [16] of 3.53 µM and a GI50 [17] of 1.57 µM. For the same molecule, the TGI [17] was 3.76 µM, the GI50 [18] was 1.44 µM and the TGI [18] was 2.94 µM. It also gave a GI50 [19] of 5.96 µM, a TGI [19] of 20 µM and a GI50 [20] of 5.22 µM. It also gave a TGI [20] of 20 µM, a GI50 [21] of 1.84 µM and a TGI [21] of 4.75 µM. For the same molecule, the GI50 [22] was 3 µM, the TGI [22] was 11.5 µM and the GI50 [23] was 5.2 µM. The TGI [23] was 18.2 µM, the GI50 [24] was 17.1 µM and the TGI [24] was 33.1 µM. It also gave a GI50 [25] of 1.34 µM, a TGI [25] of 4.38 µM and a GI50 [26] of 6.22 µM. It also gave a TGI [26] of 44.4 µM, a GI50 [27] of 6.51 µM and a TGI [27] of 24.2 µM. For the same molecule, the GI50 [28] was 0.424 µM, the TGI [28] was 6.03 µM and the GI50 [29] was 1.12 µM. It also gave a TGI [29] of 3.04 µM, a GI50 [30] of 1.59 µM and a TGI [30] of 4 µM. For the same molecule, the GI50 [31] was 11.9 µM, the TGI [31] was 27.1 µM and the GI50 [32] was 7.23 µM. The TGI [32] was 25.2 µM, the GI50 [33] was 1.59 µM and the TGI [33] was 3.61 µM. It also gave a GI50 [34] of 3.6 µM, a TGI [34] of 14 µM and a GI50 [35] of 1.03 µM. The TGI [35] was 2.32 µM, the GI50 [36] was 1.98 µM and the TGI [36] was 4.46 µM. The GI50 [37] was 1.31 µM, the TGI [37] was 2.77 µM and the GI50 [38] was 1.19 µM. It also gave a TGI [38] of 4.74 µM, a GI50 [39] of 5.25 µM and a TGI [39] of 21 µM. It also gave a GI50 [40] of 2.2 µM, a TGI [40] of 8.79 µM and a GI50 [41] of 1.85 µM. The TGI [41] was 5.11 µM, the GI50 [42] was 2.02 µM and the TGI [42] was 6.4 µM. It also gave a GI50 [43] of 1.58 µM, a TGI [43] of 3.87 µM and a GI50 [44] of 1.02 µM. The TGI [44] was 2.47 µM, the GI50 [45] was 3.29 µM and the TGI [45] was 12 µM. For the same molecule, the GI50 [46] was 1.41 µM, the TGI [46] was 3.23 µM and the GI50 [47] was 1.18 µM. It also gave a TGI [47] of 2.6 µM, a GI50 [48] of 1.52 µM and a TGI [48] of 6.3 µM. The GI50 [49] was 1.99 µM, the TGI [49] was 6.56 µM and the GI50 [50] was 1.33 µM. For the same molecule, the TGI [50] was 3.86 µM, the GI50 [51] was 1.64 µM and the TGI [51] was 3.41 µM. For the same molecule, the GI50 [52] was 2.78 µM, the TGI [52] was 10.7 µM and the GI50 [53] was 6.15 µM. For the same molecule, the TGI [53] was 21.6 µM, the GI50 [54] was 3.67 µM and the TGI [54] was 19.1 µM. For the same molecule, the GI50 [55] was 5.93 µM and the TGI [55] was 19.2 µM.
